According to PMC6218659, “Structures of DPAGT1 Explain Glycosylation Disease Mechanisms and Advance TB Antibiotic Design” (Cell, 2018):
Changes are numbered by the printed parent chain. Names and notes keep the numbering of the source.

T1: DPAGT1 (Homo sapiens, UniProt Q9H3H5)
T1 construct: H. sapiens DPAGT1 (1-408, N-terminal 6 x HIS tag, TEV cleavage site); 6xHis purification tag with TEV site (N, cleaved yes); made in house; host or cells: Spodoptera frugiperda Sf9 insect cells (baculovirus)
T1 sequence (Q9H3H5 1-408): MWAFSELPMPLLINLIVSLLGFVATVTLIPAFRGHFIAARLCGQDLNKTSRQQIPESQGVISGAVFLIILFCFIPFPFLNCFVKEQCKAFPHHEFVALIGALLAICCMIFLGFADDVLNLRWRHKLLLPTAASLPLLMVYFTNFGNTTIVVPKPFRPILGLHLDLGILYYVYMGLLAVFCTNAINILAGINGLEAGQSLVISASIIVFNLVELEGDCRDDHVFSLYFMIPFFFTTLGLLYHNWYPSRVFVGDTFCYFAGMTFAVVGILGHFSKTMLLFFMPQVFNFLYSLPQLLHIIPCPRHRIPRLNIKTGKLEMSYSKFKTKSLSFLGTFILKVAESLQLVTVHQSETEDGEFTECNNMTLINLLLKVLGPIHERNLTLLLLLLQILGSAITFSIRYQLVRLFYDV

T2: DPAGT1 Arg301Cys (Homo sapiens, UniProt Q9H3H5, R301C)
T2 construct: combined with the LIC-adapted primers to amplify the complete DPAGT1 gene, including the desired mutations; 6xHis purification tag with TEV site (N, cleaved yes); made in house; host or cells: Spodoptera frugiperda Sf9 insect cells (baculovirus)
T2 sequence (Q9H3H5 1-408 R301C): T1 sequence (Q9H3H5 1-408) with R301C

T3: DPAGT1 Arg301His (Homo sapiens, UniProt Q9H3H5, R301H)
T3 construct: combined with the LIC-adapted primers to amplify the complete DPAGT1 gene, including the desired mutations; 6xHis purification tag with TEV site (N, cleaved yes); made in house; host or cells: Spodoptera frugiperda Sf9 insect cells (baculovirus)
T3 sequence (Q9H3H5 1-408 R301H): T1 sequence (Q9H3H5 1-408) with R301H

T4: DPAGT1 Leu168Pro (Homo sapiens, UniProt Q9H3H5, L168P)
T4 construct: combined with the LIC-adapted primers to amplify the complete DPAGT1 gene, including the desired mutations; 6xHis purification tag with TEV site (N, cleaved yes); made in house; host or cells: Spodoptera frugiperda Sf9 insect cells (baculovirus)
T4 sequence (Q9H3H5 1-408 L168P): T1 sequence (Q9H3H5 1-408) with L168P

T5: DPAGT1 Tyr170Cys (Homo sapiens, UniProt Q9H3H5, Y170C)
T5 construct: combined with the LIC-adapted primers to amplify the complete DPAGT1 gene, including the desired mutations; 6xHis purification tag with TEV site (N, cleaved yes); made in house; host or cells: Spodoptera frugiperda Sf9 insect cells (baculovirus)
T5 sequence (Q9H3H5 1-408 Y170C): T1 sequence (Q9H3H5 1-408) with Y170C

T6: DPAGT1 Val264Gly (Homo sapiens, UniProt Q9H3H5, V264G)
T6 construct: H. sapiens DPAGT1 (1-408, Val264Gly, N-terminal 6 x HIS tag, TEV cleavage site); 6xHis purification tag with TEV site (N, cleaved yes); made in house; host or cells: Spodoptera frugiperda Sf9 insect cells (baculovirus)
T6 sequence (Q9H3H5 1-408 V264G): T1 sequence (Q9H3H5 1-408) with V264G

T7: DPAGT1 WT (Homo sapiens, UniProt Q9H3H5)
T7 construct: H. sapiens DPAGT1 (1-408, N-terminal 6 x HIS tag, TEV cleavage site); 6xHis purification tag with TEV site (N, cleaved yes); made in house; host or cells: Spodoptera frugiperda Sf9 insect cells (baculovirus)
T7 sequence (Q9H3H5 1-408): T1 sequence (Q9H3H5 1-408)

B1: H. sapiens DPAGT1 (1-408, Val264Gly, N-terminal 6 x HIS tag, TEV cleavage site) (enzyme, human, UniProt Q9H3H5 1-408, looked up)
chain: T1 sequence (Q9H3H5 1-408) with V264G
notes: human DPAGT1, residues 1-408, full length, with the missense variant Val264Gly found in some congenital myasthenic syndrome patients; After TEV cleavage an additional N-terminal serine remains (measured mass 46135 Da); Used for the apo, UDP-GlcNAc and tunicamycin crystal structures; also called Val264Gly DPAGT1; V264G variant; source: Sf9 insect cells (baculovirus), purified (OGNG/CHS extraction, …)
B2: H. sapiens DPAGT1 (1-408, N-terminal 6 x HIS tag, TEV cleavage site), wild type (enzyme, human, UniProt Q9H3H5 1-408, looked up)
chain: T1 sequence (Q9H3H5 1-408)
notes: human dolichyl-phosphate N-acetylglucosamine-phosphotransferase DPAGT1 (E.C. 2.7.8.15), residues 1-408, full-length wild type; After TEV cleavage an additional N-terminal serine remains (measured mass 46177 Da); Integral membrane protein kept in OGNG/CHS/cardiolipin (or DOPG) detergent-lipid buffer; also called WT DPAGT1; GPT; source: Sf9 insect cells (baculovirus), purified (OGNG/CHS extraction, …)

Columns and labels:
[1] = biological target: T1, DPAGT1; assay: Radiolabeled substrate enzyme activity assay; format: biochemical, H. sapiens
Experimental: 2 μl of 2 μM DPAGT1 WT or mutant proteins in GFB buffer supplemented with 5mM extra MgCl2, 1% OGNG/CHS/cardiolipin and dolichyl monophosphate was combined with 2 μl of UDP-N-acetyl [1-14C] […] The reaction was terminated by the addition of 6 μl of 100% methanol and immediately transferred onto ice. 1 μl of sample was spotted onto a silica coated TLC plate in triplicate and run with a mobile phase consisting of chloroform, methanol, and water at a 65:25:4 ratio respectively. After the run, the TLC plate was dried thoroughly, wrapped in cling film, incubated with a phosphor imaging substrate for 4 days, then phosphor imaged using a Biorad. The pixel density of the spots corresponding to the hydrophobic product was divided by combined pixel density of the product and the substrate and multiplied by the known concentration of substrate added to ascertain the amount of product formed.

[2] = biological target: T2, DPAGT1 Arg301Cys; assay: Thermostability assay (label free differential scanning fluorimetry); format: binding, H. sapiens; details: 50 μM compound
Experimental: (§1) Samples with a volume of 40 μl were prepared containing 0.5 mg/ml protein and 50 μM compound or 5% DMSO in GFB. A glass capillary was dipped into each sample, with the capillary held horizontally to ensure that the capillary was full of the sample. The capillaries were placed on the capillary holder on the Nanotemper Prometheus. Technical triplicates of each sample were prepared, and each experiment was conducted with biological triplicates of each protein. PR.ThermControl software was used to run the experiment and analyse the data. A melting curve from 20 °C – 95 °C at 5 °C/min was performed. The minimum of the first derivative of the 330/350nm ratio was used to determine the Tm1/2.

[3] = biological target: T3, DPAGT1 Arg301His; assay: as above; format: binding, H. sapiens; details: 50 μM compound
Experimental: as §1

[4] = biological target: T4, DPAGT1 Leu168Pro; assay: as above; format: binding, H. sapiens; details: 50 μM compound
Experimental: as §1

[5] = biological target: T5, DPAGT1 Tyr170Cys; assay: as above; format: binding, H. sapiens; details: 50 μM compound
Experimental: as §1

[6] = biological target: T6, DPAGT1 Val264Gly; assay: as above; format: binding, H. sapiens; details: 50 μM compound
Experimental: as §1

[7] = biological target: T7, DPAGT1 WT; assay: as above; format: binding, H. sapiens; details: 50 μM compound
Experimental: as §1

[8] = biological target: the molecule itself; assay: crystal structure; space group P6(5)22, one DPAGT1 monomer in the asymmetric unit; dimer formed through a crystallographic 2-fold axis; apo WT, apo Val264Gly and Val264Gly complexes with UDP-GlcNAc/Mg2+ or tunicamycin
[9] = biological target: the molecule itself; assay: native MS; purified DPAGT1 diluted to 10 uM, buffer exchanged into 200 mM ammonium acetate, 0.16% OGNG; Q Exactive modified for high-mass transmission, positive ion mode

| Molecule | effect of adding product on DPAGT1 activity ([1]; product inhibition test) | Thermostability (Tm1/2) with added compound [2] | Thermostability (Tm1/2) with added compound [3] | Thermostability (Tm1/2) with added compound [4] | Thermostability (Tm1/2) with added compound [5] | Thermostability (Tm1/2) with added compound [6] | Thermostability (Tm1/2) with added compound [7] | kcat ([1]; WT DPAGT1, non-titrated substrate at 200 μM) | Km ([1]; WT DPAGT1, non-titrated substrate at 200 μM, read-out: apparent Km) | binding result [8] | stoichiometry N [9] |
| --- | --- | --- | --- | --- | --- | --- | --- | --- | --- | --- | --- |
| O=c1ccn([C@@H]2O[C@H](COP(=O)(O)O)[C@@H](O)[C@H]2O)c(=O)[nH]1 [UMP] | no effect | 51.4±0.8 °C | 51.4±0.9 °C | 50.4±0.6 °C | 50.7±0.3 °C | 50.5±0.2 °C | 51.7±0.2 °C | – | – | – | – |
| dolichyl phosphate [Dol-P] | – | 56.4±0.5 °C | 56.2±1.2 °C | 52.5±0.3 °C | 54.0±1.0 °C | 57.2±0.2 °C | 58.5 °C | 0.00333 ± 0.0002 s⁻¹ | 36.3 ± 7.2 µM | – | – |
| CC(=O)NC1C(OP(=O)(O)OP(=O)(O)OCC2OC(n3ccc(=O)[nH]c3=O)C(O)C2O)OC(CO)C(O)C1O (centres unmarked) [UDP-GlcNAc, UDP-N-acetyl glucosamine] | – | 52.5±0.6 °C | 52.4±1.0 °C | 53.8±1.1 °C | 54.0±0.8 °C | 54.6±0.4 °C | 55.1±0.4 °C | – | – | – | – |
| B1 | – | – | – | – | – | – | – | – | – | binds | – |
| B2 | – | – | – | – | – | – | – | – | – | – | 2 |
